Experimental data from ChEMBL document CHEMBL1147579, “Design, synthesis and evaluation of novel 1,4-naphthoquinone derivatives as antifungal and anticancer agents” (2004).
In brackets after ≈: the same amount, converted by molar mass.

Experiments:
Rattus norvegicus [1] = experiment: Anticancer activity against Walker 256 carcinoma in rat after administration of 10 mg/kg; Activity expressed as % T/C (Active); assay type: functional
Rattus norvegicus [2] = experiment: Anticancer activity against Walker 256 carcinoma cells in rat after administration of 10 mg/kg; Activity expressed as survivors out of 4 rats (Active); assay type: functional
Aspergillus fumigatus = experiment: Antifungal activity against Aspergillus fumigatus; assay type: functional
Cryptococcus neoformans [3] = experiment: Antifungal activity against Cryptococcus neoformans; assay type: functional
Candida albicans = experiment: Antifungal activity against Candida albicans; assay type: functional
Microsporum canis = experiment: Antifungal activity against Microsporum canis; assay type: functional
[4] = Antifungal activity against Trichophyton mentagrophytes; assay type: functional, Trichophyton mentagraphytes; details: Trichophyton benhamiae
Sporothrix schenckii = experiment: Antifungal activity against Sporotrichum schenckii
Tolypocladium inflatum = experiment: Antifungal activity against Sporotrichum schenckii; assay type: functional; details: sporotrichum scenckii
Cryptococcus neoformans [5] = experiment: Antifungal activity against C. neoformans; No activity; assay type: functional

Compound	T/C (Rattus norvegicus [1])	Survivors (Rattus norvegicus [2])	MIC (Aspergillus fumigatus)	MIC (Cryptococcus neoformans [3])	MIC (Candida albicans)	MIC (Microsporum canis)	MIC [4]	MIC (Sporothrix schenckii)	MIC (Tolypocladium inflatum)	MIC (Cryptococcus neoformans [5])
O=C1C=CC(=O)c2c(O)ccc(O)c21 [NAPHTHAZALIN]	37%	3 µg/mL								
Clc1ccc(COC(Cn2ccnc2)c2ccc(Cl)cc2Cl)c(Cl)c1 (stereo unspecified) [MICONAZOLE]			12.5 µg/mL (≈ 30 µM)	12.5 µg/mL (≈ 30 µM)	25 µg/mL (≈ 60.1 µM)	≤ 0.78 µg/mL	≤ 0.78 µg/mL			
O=C1c2ccccc2C(=O)c2c1sc1nccn21			25 µg/mL (≈ 98.3 µM)	12.5 µg/mL (≈ 49.2 µM)	50 µg/mL (≈ 197 µM)	25 µg/mL (≈ 98.3 µM)	25 µg/mL (≈ 98.3 µM)	25 µg/mL (≈ 98.3 µM)		
NYSTATIN				3.9 µg/mL	7.9 µg/mL				13.2 µg/mL	
O=C1C(CO)=C(Sc2ccccc2)C(=O)c2ccccc21			< 0.78 µg/mL	1.56 µg/mL (≈ 5.26 µM)	25 µg/mL (≈ 84.4 µM)	1.56 µg/mL (≈ 5.26 µM)	1.56 µg/mL (≈ 5.26 µM)			
O=C1c2sc3nccn3c2C(=O)c2c(Cl)ccc(O)c21			3.1 µg/mL (≈ 10.2 µM)	6.25 µg/mL (≈ 20.5 µM)	25 µg/mL (≈ 82 µM)	6.25 µg/mL (≈ 20.5 µM)	6.25 µg/mL (≈ 20.5 µM)			
C[C@@H]1[C@H](O)[C@@H](C)/C=C/C=C/C=C/C=C/C=C/C=C/C=C/[C@H](O[C@@H]2O[C@H](C)[C@@H](O)[C@H](N)[C@@H]2O)C[C@@H]2O[C@](O)(C[C@@H](O)C[C@@H](O)[C@H](O)CC[C@@H](O)C[C@@H](O)CC(=O)O[C@H]1C)C[C@H](O)[C@H]2C(=O)O [AMPHOTERICIN B]				0.78 µg/mL (≈ 0.844 µM)	0.39 µg/mL (≈ 0.422 µM)	1.56 µg/mL (≈ 1.69 µM)	1.56 µg/mL (≈ 1.69 µM)			
O=C1c2sc3nccn3c2C(=O)c2c(O)ccc(O)c21				< 12.5 µg/mL	25 µg/mL (≈ 87.3 µM)	25 µg/mL (≈ 87.3 µM)	25 µg/mL (≈ 87.3 µM)	< 12.5 µg/mL		
CC1=CC(=O)c2c(O)ccc(O)c2C1=O	23%	4								
O=C(O)CCSC1=CC(=O)c2c(O)ccc(O)c2C1=O					3.12 µg/mL (≈ 10.6 µM)	3.12 µg/mL (≈ 10.6 µM)	3.12 µg/mL (≈ 10.6 µM)			1.56 µg/mL (≈ 5.3 µM)
O=C1C=C(Sc2ccccc2)C(=O)c2ccccc21			25 µg/mL (≈ 93.9 µM)	1.56 µg/mL (≈ 5.86 µM)	12.5 µg/mL (≈ 46.9 µM)	< 0.98 µg/mL	< 0.78 µg/mL			
